This note sets out measurements from patent US7951804B2, “Piperidinyl compounds” (Merck Patent GmbH, priority 2003, dated 2011).

Counter-ions that a name gives are not always drawn.

One test concerns the target FXa (Homo sapiens, UniProt P00742). In words: Factor Xa inhibition (FXa-IC50). The test is classed as biochemical. The text has this: The inhibition of factor Xa by the compounds according to the invention and the measurement of the anticoagulant and antithrombotic activity can be determined by conventional in-vitro or in-vivo methods. A suitable method is described, for example, by J. Hauptmann et al. in Thrombosis and Haemostasis 1990, 63, 220-223.
The inhibition of factor Xa can be measured, for example, by the method of T. Hara et al. in Thromb. Haemostas. 1994, 71, 314-319.

The target of a further test is TF/FVIIa (Homo sapiens, UniProt P08709). In words: TF/factor VIIa inhibition (TF/FVIIa-IC50). The class given is biochemical. The text has this:
The inhibition of factor VIIa by the compounds according to the invention and the measurement of the anticoagulant and antithrombotic activity can be determined by conventional in-vitro or in-vivo methods. A conventional method for the measurement of the inhibition of factor Vila is described, for example, by H. F. Ronning et al. in Thrombosis Research 1996, 84, 73-81.

Sequence of TF/FVIIa (P08709 213-466 limits assumed): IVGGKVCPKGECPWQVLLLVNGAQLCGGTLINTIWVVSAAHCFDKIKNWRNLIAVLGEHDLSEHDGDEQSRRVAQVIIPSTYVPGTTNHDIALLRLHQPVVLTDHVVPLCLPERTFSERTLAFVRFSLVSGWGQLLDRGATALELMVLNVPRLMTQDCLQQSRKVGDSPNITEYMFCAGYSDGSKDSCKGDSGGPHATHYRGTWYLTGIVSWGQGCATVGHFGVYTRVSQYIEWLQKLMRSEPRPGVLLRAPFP
Sequence of TF/FVIIa (P08709 61-212 partner limits assumed): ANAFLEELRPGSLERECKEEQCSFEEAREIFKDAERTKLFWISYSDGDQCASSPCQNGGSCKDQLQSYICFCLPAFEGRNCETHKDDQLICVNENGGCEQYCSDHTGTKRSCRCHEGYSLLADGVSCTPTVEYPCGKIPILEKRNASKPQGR
Sequence of TF/FVIIa (P13726 33-295 partner): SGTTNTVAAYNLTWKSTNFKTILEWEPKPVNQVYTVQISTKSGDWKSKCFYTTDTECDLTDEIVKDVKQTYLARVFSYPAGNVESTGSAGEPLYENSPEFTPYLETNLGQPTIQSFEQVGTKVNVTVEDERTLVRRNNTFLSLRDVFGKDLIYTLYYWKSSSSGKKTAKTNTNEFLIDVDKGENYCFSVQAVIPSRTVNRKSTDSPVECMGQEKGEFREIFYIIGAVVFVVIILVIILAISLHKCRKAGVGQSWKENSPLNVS
Sequence of FXa (P00742 235-488 limits assumed): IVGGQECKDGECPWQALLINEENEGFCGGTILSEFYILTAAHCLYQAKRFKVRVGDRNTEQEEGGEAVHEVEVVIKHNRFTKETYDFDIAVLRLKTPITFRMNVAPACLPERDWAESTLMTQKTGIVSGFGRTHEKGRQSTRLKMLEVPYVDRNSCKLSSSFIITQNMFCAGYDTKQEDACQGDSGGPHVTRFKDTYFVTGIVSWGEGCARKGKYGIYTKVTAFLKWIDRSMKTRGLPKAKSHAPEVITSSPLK
Sequence of FXa (P00742 41-179 partner limits assumed): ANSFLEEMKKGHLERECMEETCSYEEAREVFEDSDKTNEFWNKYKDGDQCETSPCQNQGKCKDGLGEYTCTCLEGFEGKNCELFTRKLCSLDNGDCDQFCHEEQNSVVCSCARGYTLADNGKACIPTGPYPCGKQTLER

One may read the IC50 as the concentration at which inhibition is half-maximal. Consider `CN1CCC(C2CCN(C(=O)[C@H](NC(=O)Nc3ccc(Cl)cc3)c3ccccc3)CC2)CC1` [Compound 1, (R)-1-(4-chlorophenyl)-3-[2-(1′-methyl-4,4′-bipiperidinyl-1-yl)-2-oxo-1-phenylethyl]urea], for which the figures for the IC50 against FXa and against TF/FVIIa were 6 nM and 6.9 nM, respectively.

In the case of `O=C(Nc1ccc(Cl)cc1)N[C@@H](C(=O)N1CCN(c2ccc(F)cc2)CC1)c1ccccc1` [Compound 2, (R)-1-(4-chlorophenyl)-3-{2-[4-(4-fluorophenyl)piperazin-1-yl]-2-oxo-1-phenylethyl}urea], the IC50 was 670 nM against FXa and 1700 nM against TF/FVIIa.

`CN1CCC(N2CCN(C(=O)[C@H](NC(=O)Nc3ccc(Cl)cc3)c3ccccc3)CC2)CC1` [Compound 5, (R)-1-(4-chlorophenyl)-3-{2-[4-(1-methylpiperidin-4-yl)piperazin-1-yl]-2-oxo-1-phenylethyl}urea bistrifluoroacetate]: the concentration for half-maximal inhibition (IC50) was 17 nM at FXa and 6.3 nM against TF/FVIIa.

Consider `CN1CCC(C2CCN(C(=O)[C@H](OC(=O)Nc3ccc(Cl)cc3)c3ccccc3)CC2)CC1` [Compound 49, 2-(1′-methyl-4,4′-bipiperidinyl-1-yl)-2-oxo-1-phenylethyl (R)-4-chlorophenyl)carbamate trifluoroacetate], for which the IC50 was determined as 11 nM at FXa and 15 nM at TF/FVIIa.
